Test results as given in ChEMBL document CHEMBL1135808, “A new type of mixed anhydride and its applications to the synthesis of 7-substituted 8-chloro-5,5-dioxoimidazo[1,2-b][1,4,2]benzodithiazines with in vitro antitumor activity” (2002).

What was measured:
Tumor Cell line = assay: In vitro inhibition of 50% cell growth was reported as log of molar concentration for 60 cell lines.; assay type: functional; conditions: Homo sapiens
SF-539 [1] = assay: Log of molar concentration leading to 50% cell death against CNS cancer SF-539 cell line was reported; assay type: functional; conditions: Homo sapiens, read-out: Log LC50 (the source's name) (converted)
SK-OV-3 = assay: In vitro total growth inhibition against ovarian cancer SK-OV-3 cell lines was reported.; assay type: functional; conditions: Homo sapiens, read-out: Log TGI (converted)
NCI-H23 [2] = assay: Log of molar concentration leading to 50% cell death against non-small-cell lung cancer NCI-H23 cell line was reported; assay type: functional; conditions: Homo sapiens, read-out: Log LC50 (the source's name) (converted)
CCRF-CEM = assay: Log of molar concentration leading to 50% cell death against leukemia CCRF-CEM cell line was reported; assay type: functional; conditions: Homo sapiens, read-out: Log LC50 (the source's name) (converted)
MDA-N [3] = assay: In vitro growth inhibition against breast cancer MDA-N cell line was reported.; assay type: functional; conditions: Homo sapiens
NCI-H522 = assay: In vitro growth inhibition against non-small-cell lung cancer […] cell line was reported.; assay type: functional; conditions: Homo sapiens
SNB-19 [4] = assay: In vitro growth inhibition against CNS cancer SNB-19 cell line was reported.; assay type: functional; conditions: Homo sapiens
UACC-257 [5] = assay: Log of molar concentration leading to 50% cell death against melanoma UACC-257 cell line was reported; assay type: functional; conditions: Homo sapiens, read-out: Log LC50 (the source's name) (converted)
SK-MEL-2 [6] = assay: In vitro total growth inhibition against melanoma SK-MEL-2 cell lines was reported.; assay type: functional; conditions: Homo sapiens, read-out: Log TGI (converted)
SR = assay: Log of molar concentration leading to 50% cell death against leukemia SR cell line was reported; assay type: functional; conditions: Homo sapiens, read-out: Log LC50 (the source's name) (converted)
SF-268 = assay: In vitro total growth inhibition against CNS cancer SF-268 cell lines was reported.; assay type: functional; conditions: Homo sapiens, read-out: Log TGI (converted)
UO-31 [7] = assay: In vitro growth inhibition against renal cancer UO-31 cell line was reported.; assay type: functional; conditions: Homo sapiens
SNB-19 [8] = assay: Log of molar concentration leading to 50% cell death against CNS cancer SNB-19 cell line was reported; assay type: functional; conditions: Homo sapiens, read-out: Log LC50 (the source's name) (converted)
HCT-15 [9] = assay: Log of molar concentration leading to 50% cell death against colon cancer HCT-15 cell line was reported; assay type: functional; conditions: Homo sapiens, read-out: Log LC50 (the source's name) (converted)
SNB-75 [10] = assay: Log of molar concentration leading to 50% cell death against CNS cancer SNB-75 cell line was reported; assay type: functional; conditions: Homo sapiens, read-out: Log LC50 (the source's name) (converted)
LOX IMVI [11] = assay: In vitro total growth inhibition against melanoma LOX IMVI cell lines was reported.; assay type: functional; conditions: Homo sapiens, read-out: Log TGI (converted)
NCI-H46 = assay: In vitro growth inhibition against non-small-cell lung cancer […] cell line was reported.; assay type: functional; conditions: Homo sapiens
KM12 = assay: Log of molar concentration leading to 50% cell death against colon cancer KM12 cell line was reported; assay type: functional; conditions: Homo sapiens, read-out: Log LC50 (the source's name) (converted)
MDA-N [12] = assay: Log of molar concentration leading to 50% cell death against breast cancer MDA-Ncell line was reported; assay type: functional; conditions: Homo sapiens, read-out: Log LC50 (the source's name) (converted)
NCI-H23 [13] = assay: In vitro growth inhibition against non-small-cell lung cancer NCI-H23 cell line was reported.; assay type: functional; conditions: Homo sapiens
SN12C [14] = assay: In vitro total growth inhibition against renal cancer SN12C cell lines was reported.; assay type: functional; conditions: Homo sapiens, read-out: Log TGI (converted)
NCI-H322M = assay: In vitro total growth inhibition against non-small-cell lung cancer NCI-H322M cell lines was reported.; assay type: functional; conditions: Homo sapiens, read-out: Log TGI (converted)
OVCAR-5 [15] = assay: Log of molar concentration leading to 50% cell death against ovarian cancer […] cell line was reported; assay type: functional; conditions: Homo sapiens, read-out: Log LC50 (the source's name) (converted)
BT-549 = assay: Log of molar concentration leading to 50% cell death against breast cancer BT 549 cell line was reported; assay type: functional; conditions: Homo sapiens, read-out: Log LC50 (the source's name) (converted)
UACC-62 = assay: In vitro total growth inhibition against melanoma UACC-62 cell lines was reported.; assay type: functional; conditions: Homo sapiens, read-out: Log TGI (converted)
ACHN [16] = assay: In vitro total growth inhibition against renal cancer ACHN cell lines was reported.; assay type: functional; conditions: Homo sapiens, read-out: Log TGI (converted)
LOX IMVI [17] = assay: Log of molar concentration leading to 50% cell death against melanoma LOX IMVI cell line was reported; assay type: functional; conditions: Homo sapiens, read-out: Log LC50 (the source's name) (converted)
UACC-257 [18] = assay: In vitro total growth inhibition against melanoma UACC-257 cell lines was reported.; assay type: functional; conditions: Homo sapiens, read-out: Log TGI (converted)
PC-3 = assay: In vitro total growth inhibition against prostate cancer PC-3 cell lines was reported.; assay type: functional; conditions: Homo sapiens, read-out: Log TGI (converted)
SNB-75 [19] = assay: In vitro growth inhibition against CNS cancer SNB-75 cell line was reported.; assay type: functional; conditions: Homo sapiens
ACHN [20] = assay: In vitro growth inhibition against renal cancer ACHN cell line was reported.; assay type: functional; conditions: Homo sapiens
SF-539 [21] = assay: In vitro total growth inhibition against CNS cancer SF-539 cell lines was reported.; assay type: functional; conditions: Homo sapiens, read-out: Log TGI (converted)
HOP-92 = assay: In vitro total growth inhibition against non-small-cell lung cancer HOP-92 cell lines was reported.; conditions: Homo sapiens, read-out: Log TGI (converted)
RXF 393 = assay: In vitro growth inhibition against renal cancer RXF 393 cell line was reported.; assay type: functional; conditions: Homo sapiens
OVCAR-5 [22] = assay: In vitro total growth inhibition against ovarian cancer OVCAR-5 cell lines was reported.; assay type: functional; conditions: Homo sapiens, read-out: Log TGI (converted)
A549 = assay: In vitro growth inhibition against non-small-cell lung cancer A 549/ATCC cell line was reported.; assay type: functional; conditions: Homo sapiens
Malme-3M [23] = assay: In vitro total growth inhibition against melanoma MALME 3M cell lines was reported.; assay type: functional; conditions: Homo sapiens, read-out: Log TGI (converted)
SN12C [24] = assay: Log of molar concentration leading to 50% cell death against renal cancer SN12C cell line was reported; assay type: functional; conditions: Homo sapiens, read-out: Log LC50 (the source's name) (converted)
ACHN [25] = assay: Log of molar concentration leading to 50% cell death against renal cancer ACHN cell line was reported; assay type: functional; conditions: Homo sapiens, read-out: Log LC50 (the source's name) (converted)
Hs-578T = assay: In vitro total growth inhibition against breast cancer HS 578T cell lines was reported.; assay type: functional; conditions: Homo sapiens, read-out: Log TGI (converted)
SNB-75 [26] = assay: In vitro total growth inhibition against CNS cancer SNB-75 cell lines was reported.; assay type: functional; conditions: Homo sapiens, read-out: Log TGI (converted)
HCT-15 [27] = assay: In vitro total growth inhibition against colon cancer HCT-15 cell lines was reported.; assay type: functional; conditions: Homo sapiens, read-out: Log TGI (converted)
Malme-3M [28] = assay: Log of molar concentration leading to 50% cell death against melanoma MALME 3M cell line was reported; assay type: functional; conditions: Homo sapiens, read-out: Log LC50 (the source's name) (converted)
UO-31 [29] = assay: Log of molar concentration leading to 50% cell death against renal cancer UO-31 cell line was reported; assay type: functional; conditions: Homo sapiens, read-out: Log LC50 (the source's name) (converted)
NCI-H226 = assay: Log of molar concentration leading to 50% cell death against non-small-cell lung cancer NCI-H226 cell line was reported; assay type: functional; conditions: Homo sapiens, read-out: Log LC50 (the source's name) (converted)
A498 = assay: Log of molar concentration leading to 50% cell death against renal cancer A498 cell line was reported; assay type: functional; conditions: Homo sapiens, read-out: Log LC50 (the source's name) (converted)
MDA-MB-435 = assay: Log of molar concentration leading to 50% cell death against breast cancer MDA-MB-435 cell line was reported; assay type: functional; conditions: Homo sapiens, read-out: Log LC50 (the source's name) (converted)
MCF7 = assay: In vitro total growth inhibition against breast cancer MCF 7 cell lines was reported.; assay type: functional; conditions: Homo sapiens, read-out: Log TGI (converted)
SK-MEL-2 [30] = assay: Log of molar concentration leading to 50% cell death against melanoma SK-MEL-2 cell line was reported; assay type: functional; conditions: Homo sapiens, read-out: Log LC50 (the source's name) (converted)
MOLT-4 = assay: Log of molar concentration leading to 50% cell death against leukemia MOLT-4 cell line was reported; assay type: functional; conditions: Homo sapiens, read-out: Log LC50 (the source's name) (converted)
T47D = assay: In vitro growth inhibition against breast cancer […] cell line was reported.; assay type: functional; conditions: Homo sapiens

Compound: O=C(Nc1nccs1)c1cc2c(cc1Cl)Sc1nccn1S2(=O)=O
- GI50 (Tumor Cell line): 28.2 µM
- CC50 (SF-539 [1]): 72.4 µM
- TGI (SK-OV-3): 64.6 µM
- CC50 (NCI-H23 [2]): 67.6 µM
- CC50 (CCRF-CEM): 95.5 µM
- GI50 (MDA-N [3]): 17.8 µM
- GI50 (NCI-H522): 1.23 µM
- GI50 (SNB-19 [4]): 19.1 µM
- CC50 (UACC-257 [5]): 52.5 µM
- TGI (SK-MEL-2 [6]): 33.1 µM
- CC50 (SR): 46.8 µM
- TGI (SF-268): 46.8 µM
- GI50 (UO-31 [7]): 4.37 µM
- CC50 (SNB-19 [8]): 72.4 µM
- CC50 (HCT-15 [9]): 93.3 µM
- CC50 (SNB-75 [10]): 66.1 µM
- TGI (LOX IMVI [11]): 25.7 µM
- GI50 (NCI-H46): 15.8 µM
- CC50 (KM12): 57.5 µM
- CC50 (MDA-N [12]): 61.7 µM
- GI50 (NCI-H23 [13]): 17 µM
- TGI (SN12C [14]): 32.4 µM
- TGI (NCI-H322M): 33.9 µM
- CC50 (OVCAR-5 [15]): 97.7 µM
- CC50 (BT-549): 69.2 µM
- TGI (UACC-62): 27.5 µM
- TGI (ACHN [16]): 32.4 µM
- CC50 (LOX IMVI [17]): 60.3 µM
- TGI (UACC-257 [18]): 26.9 µM
- TGI (PC-3): 33.1 µM
- GI50 (SNB-75 [19]): 18.6 µM
- GI50 (ACHN [20]): 17.8 µM
- TGI (SF-539 [21]): 37.2 µM
- TGI (HOP-92): 39.8 µM
- GI50 (RXF 393): 19.1 µM
- TGI (OVCAR-5 [22]): 45.7 µM
- GI50 (A549): 24 µM
- TGI (Malme-3M [23]): 37.2 µM
- CC50 (SN12C [24]): 63.1 µM
- CC50 (ACHN [25]): 58.9 µM
- TGI (Hs-578T): 91.2 µM
- TGI (SNB-75 [26]): 35.5 µM
- TGI (HCT-15 [27]): 33.9 µM
- CC50 (Malme-3M [28]): 69.2 µM
- CC50 (UO-31 [29]): 46.8 µM
- CC50 (NCI-H226): 64.6 µM
- CC50 (A498): 63.1 µM
- CC50 (MDA-MB-435): 57.5 µM
- TGI (MCF7): 20 µM
- CC50 (SK-MEL-2 [30]): 63.1 µM
- CC50 (MOLT-4): 93.3 µM
- GI50 (T47D): 23.4 µM
